Measured values: article PMC8297771 (PLoS Pathogens, 2021)
“Also recorded” adds a separate entry of the source.

Key:
[1] = test system: Salmonella typhimurium (TA100, TA1535, TA98, TA1537) and Escherichia coli (WP2uvrA); assay: Bacterial reverse mutation assay (GLP); settings: five bacterial strains
Protocol: (§1) Bacterial reverse mutation assay (Study no. YL18407). The bacterial reverse mutation assay of STP0404 was performed in two conditions (with or without metabolic activation) for the dose range-finding test (doses of STP0404rangingfrom 2.29 to 5,000μg/plate) and the main test (doses of STP0404 ranging from 19.5 to 5,000 μg/plate) in comparison with negative control (DMSO) and active controls (sodium azide, 2-(2-furyl)-3-(5-nitro-2-furyl) acrylamide, 2-aminoanthracene, 9-aminoacridine hydrochloride). Salmonella typhimurium (TA100, TA1535) and Escherichia coli (WP2uvrA) were used for detection of base-pair substitutions. Salmonella typhimurium (TA98, TA1537) was used for detection of frameshift mutations. Chromosomal Aberration Test of STP0404 in Cultured Mammalian Cells (Study no. YL18408). Presence/absence of genotoxicity of STP0404 was determined using chromosomal aberration test carried out in CHL/IU cells. The test comprised a dose range-finding test and a main test. Micronucleus Study of STP0404 by oral administration in Rats (Study no. YL18409). STP0404 was administered orally to SD rats (3/group in preliminary test and 6/group in the main test) at dose levels of 500, 1000 and 2000 mg/kg/day once daily for 2 days in a two-test study (preliminary test and main test) to investigate the genotoxicity profile of STP0404. […] Bone marrow smear slides were evaluated (INA Research, Japan).

bone marrow cells = assay: Micronucleus study by oral administration in rats (GLP); format: in vivo, SD rats; settings: 500, 1000 and 2000 mg/kg/day
Protocol: as §1

CHL/IU cells = assay: Chromosomal aberration test in cultured mammalian cells (GLP); format: cell-based; settings: 25~140 μg/mL
Protocol: as §1

[2] = Safety pharmacology: effects on the central nervous system in rats; format: in vivo; settings: single oral 100, 300 and 600 mg/kg
Protocol: Effects on the Respiratory System in Rats (Study no. YL18404). Four groups of eight male rats were given a single oral administration of STP0404 at doses of 100, 300 and 600 mg/kg. STP0404 was administered as a suspension in 0.5% MC in a volume of 10 mL/kg. […] Measurements were conducted at pre-dosing and 0.5, 1, 3, 6 12 and 24 hrs post-dosing, and respiratory rate, tidal volume and minute volume were investigated (INA Research, Japan). Effects on the Central Nervous System in Rats (Study no. YL18405). Four groups of six male rats were given a single oral administration of STP0404 at doses of 0 (vehicle), 100, 300 and 600 mg/kg. The test article was administered as a suspension in 0.5% MC in a volume of 10 mL/kg. […] Blinded observations were conducted pre-dosing and 0.5, 1, 3, 6, 12 and 24 hrs post-dosing on rats body temperature, pupil size, landing foot-splay and grip strength in functional observational battery. Effects on the Cardiovascular System in Dogs (Study no. YL18406). STP0404 at dose levels of 30, 60 and 90 mg/kg were administered orally (by capsules) to four male Beagle dogs in a design with 7-day intervals between doses. Heart rate, blood pressure (systolic, diastolic and mean) and electrocardiographic (ECG) parameters (PR, QT and QTc intervals and QRS duration) were evaluated at pre-dosing and 0.5, 1, 2, 4, 8 and 24 hrs post-dosing. […]

[3] = test system: HIV-GFP in LEDGF/p75 knockout Jurkat cell lines (1-F10 and 2-C10); assay: HIV-1 inhibition in infecting LEDGF/p75 knockout cells; format: cell-based; settings: 60 nM
Protocol: To test for STP0404’s inhibitory effects during the late stage of HIV-1 life cycle such as the maturation step, we employed the “producing cells” setup. In T75 tissue culture flasks, 293T cells were pre-treated with and without STP0404 (0 and 60 nM) for 2 hrs prior to transfection with pD3-HIV (13 μg) and pVSV-g (6 μg), using 0.3 mg/ml polyethylenimine. After 24 hrs incubation at 37°C, the supernatant was removed and replaced with fresh media with and without STP0404 (0 and 60 nM). 48 hrs later, D3-HIV vector from each treatment group was concentrated from the collected supernatant via ultracentrifugation (22,000 rpm for 2 hrs). Following p24 quantification, using 96-well plates, similar amount of respective D3-HIV vector was used to transduce Jurkat cells in triplicates for 48 hrs. The cells were harvested and fixed with 3.7% formaldehyde before being analyzed for GFP expression using FACS (Miltenyi Biotec, VYB). Separately, the “infecting cells” setup was used to investigate the inhibitory effects of STP0404 against the early stages of HIV-1 life cycle such as the integration and transcription steps. […] All data were analyzed using GraphPad Prism (Version 9). Unpaired t tests were performed to determine the significance of the readings in respective experimental set up relative to the untreated controls. […]

SIVmac239 = assay: In vitro efficacy test against SIVmac239 in CEMx174 cells (p27); format: cell-based, SIV; settings: p27 assay
Protocol: CEMx174 cells were infected with HIV-1 primary isolate 89.6 (From infectious clone p89.6, NIH AIDS Reagent Program) at approximately at 10% of cell population determined by FACS analyses. To determine antiviral activity during virus production, STP0404 was added at concentration in the range of 0.1 nM—10 μM during media exchange at 4 hrs post-infection. DMSO was used as a negative control. Cell-free supernatants were measured for p24 antigen production, 5 days post-infection. The anti-HIV-1 efficacy of the two enantiomers of STP0404 were also determined by using the same protocol. All assays were conducted in triplicates. […] For SIVmac239, CEMx174 cells were infected with viral supernatant containing SIVmac293 at 50,000 TCID50/mL (kind gift from Dr. G. Silvestri, Emory Yerkes National Primate Research Center) with 100 μL/10^6 cells at varying concentrations of STP0404, BI224436, and Raltegravir, and the same above protocol was followed except for that p27 capsid antigen content was measured daily for 5 days post infection.
Supplementary file ppat.1009671.s004.tiff: S1 Fig In vitro efficacy tests of STP0404, BI224436 and Raltegravir against SIVmac239 in CEMx174 cell culture. CEMx174 cells were infected with SIVmac239 with various concentrations of STP0404, BI224436, and Raltegravir, and the viral production was determined by p27 assay at 5 days post infection. […]

Structure (SMILES): Cc1nc2c(c(C)c(C)n2Cc2cnn(C)c2)c(-c2ccc(Cl)cc2)c1[C@H](OC(C)(C)C)C(=O)O [STP0404]
- gene mutation-inducing potential [1]: lacked
- bone marrow cell proliferation inhibitory potential (bone marrow cells): lacked
- micronucleus-inducing potential (bone marrow cells): lacked
- chromosomal aberration-inducing potential (CHL/IU cells): lacked
- safety pharmacology concerns, central nervous system [2]: did not induce any safety pharmacology concerns
- infection of LEDGF/p75 knockout Jurkat T cells [3]: failed to significantly inhibit infection
- inhibition of SIVmac239 (SIVmac239): did not inhibit; also recorded: failed to inhibit
